Data taken from patent publication US7850946B2, “Macrocyclic cyanine and indocyanine bioconjugates provide improved biomedical applications” (Washington University in St. Louis, priority 2003, dated 2010).
pIC50: −log10 of the molar value. Starred links: 1 amine or outer side, 2 acyl side, 3 side chain; linkers in the order of their positions; H or OH if unused. Positions of bridges follow the written chain, without caps; N, C: chain ends. Non-standard residues stand in square brackets, D forms with d. Residues, ends and D or L forms follow the SMILES beside them. X1 = CC1(C)C(/C=C/C=C/C=C/C=C2/N(CCC(=O)[*:2])c3ccc4ccccc4c3C2(C)C)=[N+](CCC(=O)[*:1])c2ccc3ccccc3c21

How the values were obtained:
[1] = test system: CA20948 tumor-bearing mice; test: Contrast agent-mediated optical imaging / biodistribution in tumor (CA20948) bearing mice; format: in vivo; details: 0.5 mL of a 1 μM solution via lateral tail vein
Source text: The instrument consists of an excitation source and a charge-coupled device (CCD) camera for signal detection. To image compounds such as compound 18 that absorb and emit radiation in the near infrared region, a nominal 780 nm collimated solid state laser source was used to excite the compounds. The nominal 50 mW of incident power from the laser was reduced to about 20 mW at the output of the fiber optic bundle. A CCD camera (12 bit, 1024×1024 pixel, back illuminated) was equipped with the appropriate interference filter to capture the emitted photons at 830 nm. Biodistribution of the dyes and receptor-specific optical contrast agent in mice were performed by injecting 0.5 mL of a 1 μM solution of the compound via the lateral tail vein of tumor (CA20948) bearing mice. […] In contrast, injection of somatostatin-avid optical probes in CA20948 tumor-bearing mice preferentially accumulates in the tumor.

SSTR2 = biological target: T1, SSTR2 (Rattus norvegicus, UniProt P30680); test: Receptor binding affinity: competition with 111In-DTPA-octreotide in AR42J tumor cell membranes; details: 37° C., 2 h, radioligand 111In-DTPA-octreotide, read-out: IC50 relative to 111In-DTPA-octreotide
T1 construct: A preparation of cell membranes was made from AR42J cells by brief sonication; endogenous in cells; host or cells: AR42J rat pancreatic carcinoma cells (membrane preparation)
T1 sequence (P30680 whole entry): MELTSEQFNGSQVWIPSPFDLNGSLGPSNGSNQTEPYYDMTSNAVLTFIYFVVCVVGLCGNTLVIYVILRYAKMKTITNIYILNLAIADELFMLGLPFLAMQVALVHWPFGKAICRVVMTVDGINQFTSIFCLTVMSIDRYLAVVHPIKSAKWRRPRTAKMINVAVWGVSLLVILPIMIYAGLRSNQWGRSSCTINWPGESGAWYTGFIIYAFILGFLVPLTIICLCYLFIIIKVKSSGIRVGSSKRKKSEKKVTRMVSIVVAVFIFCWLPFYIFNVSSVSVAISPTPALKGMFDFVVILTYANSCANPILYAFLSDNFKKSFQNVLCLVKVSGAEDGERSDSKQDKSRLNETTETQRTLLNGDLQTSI
Procedure: The binding affinity of somatostatin analogues was carried out using ^111In-DTPA-octreotide in AR42J tumor cells according to previously reported methods with minor modifications (Lewis, J. S., Lewis, M. R., Srinivasan, A., Schmidt, M. A., Wang, J., and Anderson, C. J. (1999) Comparison of Four ^64Cu-labeled Somatostatin Analogs in vitro and in a Tumor-bearing Rat Model: Evaluation of New Derivatives for PET Imaging and Targeted Radiotherapy. J. Med. Chem. 42, 1.341-1347). The AR42J rat pancreatic carcinoma cell line is known to express SSTR2 both in vitro and in vivo ((Rosewicz, S., Vogt, D., Harth, N., Grund, C., Franke, W. W., Ruppert, S., Schweitzer, E., Riecken, E.-O., and Wiedenman, B. (1992) An Amphicrine Pancreatic Cell Line: AR42J Cells Combine Exocrine and Neuroendocrine Properties. Eur. J. Cell Biol. 59, 80-91; Christophe, J. (1994) Pancreatic Tumoral Cell Line AR42J: An Amphicrine Model. Am. J.
Physiol. (Gastrointest. Liver Physiol.) 266 (29), G963-G971). […] The filters containing membrane-bound radioactivity were removed from the assay plate and counted using a Beckman 8000 automated well-typed counter (Fullerton, Calif.). Specific binding was calculated by subtracting the non-specifically bound radioactivity from that of total binding. The best-fit IC50 values were calculated using PRISM™ (Graphpad, San Diego, Calif.). […]

| time to clearance from the blood postinjection [1] [h] | biodistribution: site of accumulation ([1]; optical imaging 780 nm excitation / 830 nm emission) | pIC50 (SSTR2) | SMILES |
| --- | --- | --- | --- |
| ≤ 1 | accumulates in the liver | – | CC1(C)C(/C=C/C=C/C=C/C=C2/N(CCC(=O)O)c3ccc4ccccc4c3C2(C)C)=[N+](CCC(=O)O)c2ccc3ccccc3c21 [Compound 2, Bispropylcarboxymethylindocyanine Dye] |
| – | – | 8.09 | C[C@@H](O)[C@@H]1NC(=O)[C@@H]2CSSC[C@H](NC(=O)[C@@H](Cc3ccccc3)NC(=O)CC[N+]3=C(/C=C/C=C/C=C/C=C4/N(CCC(=O)NCCCC[C@@H](C(N)=O)NC1=O)c1ccc5ccccc5c1C4(C)C)C(C)(C)c1c3ccc3ccccc13)C(=O)N[C@@H](Cc1ccc(O)cc1)C(=O)N[C@H](Cc1c[nH]c3ccccc13)C(=O)N[C@@H](CCCCN)C(=O)N[C@@H]([C@@H](C)O)C(=O)N2 [Compound 18] ([dF]CY[dW]KTCTK-NH2; disulfide 2-7; linker N-9 via X1) |
